In US5272169A, “(N-benzyl) acetaldehyde bicyclic heterocycles useful as topical antiinflammatories” (The DuPont Merck Pharmaceutical Company, priority 1993, dated 1993):

test system: TPA-induced edema in murine skin; test: TPA-induced edema in murine skin (mouse ear), topical anti-inflammatory activity; format: in vivo, mouse (male CF-1); settings: TPA 1 μg/ear, compound topically in acetone at 100 ug/ear just prior to TPA, 4 h after TPA, 6 mm punch biopsy weight
Procedure: Anti-inflammatory activities of the investigational compounds were studied in murine skin using the following protocol. Edema was induced by tetradecanoyl phorbol acteate (TPA) (1 μg/ear) [Marks, F., Furstenberger, G., Kownatzki, E., Prostaglandin E Mediated Stimulation of Mouse Epidermis in vivo by Divalent Cation Ionophore A23187 and by Tumor Promotor TPA, Cancer Res. 1981, 41:696-702]. Male CF-1 (Charles River) […] were used. Investigational compounds (in acetone at 100 ug/ear) were applied to one ear just prior to application of the inflammagen. Four hours after TPA application, edema was determined by comparing the weights of 6 mm punch biopsies from control (solvent) and inflammagen-treated ears. Percent inhibitions were calculated using standard equations.

SMILES	% Inhibition
O=CCc1ccc(Cn2cnc3ccccc32)cc1 [Example 1 (Part D), 4-(benzimidazol-1'-ylmethyl)phenylacetaldehyde]	63%
O=CCc1ccc(Cn2ncc3ccccc32)cc1 [Example 2 (Part D), 4-(indazol-1'-ylmethyl)phenylacetaldehyde]	98%
O=CCc1ccc(Cn2nnc3ccccc32)cc1 [Example 3 (Part D), 4-(benzotriazol-1'-ylmethyl)phenylacetaldehyde]	46%
